Measured values: US20250222109A1, “STRUCTURED LIPID COMPOSITIONS” (Universität Bern, priority 2022, published 2025)

What was measured:
T cell transfer colitis = test: T-cell transfer colitis; type: in vivo, mice
Excerpt: To induce T cell mediated colitis, CD4+ T cells were isolated from the spleen of C57/BL6 mice (Strain #: 000664; RRID:IMSR_JAX: 000664 ex. Jackson laboratories) using the CD4 T cell isolation kit from Stemcell Technologies (#19852; Cologne, Germany) and subsequently naïve T helper cells (CD3+, CD4+, CD25low, […], CD44low cells) were sorted on a FACS Aria III (Becton Dickinson; Eysins, Switzerland) as described previously (D. V. Ostanin, et al., T cell transfer model of chronic colitis: Concepts, considerations, and tricks of the tradeAm. J. Physiol.—Gastrointest. Liver Physiol. 296, 135-146 (2009); M. R. Spalinger, et al., PTPN2 controls differentiation of CD4+ T cells and limits intestinal inflammation and intestinal dysbiosis, Mucosal Immunol. 8, 918-929 (2015); M. R. Spalinger, et al., Loss of PTPN22 Promotes Intestinal Inflammation by Compromising Granulocyte-mediated Antibacterial Defence, J. Crohn's Colitis 15, 2118-2130 (2021)). 12-15 week old male and female Rag^−/− mice in the C57/BL6 background (model RAGN12 (B6.129S6-Rag2^tm1Fwa N12) ex. Taconic) were injected intraperitoneally with 2.5×10^5 naïve T helper cells (all methods used were approved under licence no. ZH043/2021). Starting on day 2 post T cell injection, the mice received one daily rectal instillation (100 μL) of empty TIF-Gels, TAC-loaded TIF-Gels or TAC in vehicle solution (1% […] in distilled water). Weight development and disease activity scores were measured on a daily basis. On the last day of the experiment (day 18), the mice were anaesthetised using a mixture of ketamine 90-120 mg/kg bodyweight (Vétoquinol, Bern, Switzerland) and xylazine 8 mg/kg bodyweight (Bayer, Lyssach, Switzerland), and were subjected to mouse endoscopy to assess the extent of endoscopic colitis (M. R. Spalinger, et al., Protein tyrosine phosphatase non-receptor type 22 modulates colitis in a microbiota-dependent manner, J. Clin. Invest. 129, 2527-2541 (2019)) using the following parameters: 1) thickening of the colon wall, 2) vascularisation/bleeding, 3) extent of fibrin deposits, 4) granular appearance of the colon wall, 5) stool consistency. Each parameter was given a score from 0 (normal) to 3 (most severe appearance), resulting in a maximal total score of 15. After colonoscopy, the mice were sacrificed and colon tissue harvested for histology and isolation of lamina propria immune cells. Immune cells were isolated from the colon, mesenteric lymph nodes and the spleen, and analysed for immune cell subsets (M. R. Spalinger, et al., (2019) Loss of PTPN22 abrogates the beneficial effect of cohousing-mediated fecal microbiota transfer in murine colitis, Mucosal Immunol. 12, 1336-1347).
To assess the microscopic extent of colitis, formalin-fixed, paraffin embedded sections of the most distal 1.5 cm of the colon were subjected to hematoxilin and eosin (H&E) staining using standard protocols (M. R. Spalinger, et al. (2019)). The sections were analysed by two blinded scientists for the extent of epithelial damage (score 0-4) and infiltration of immune cells (score 0-4) resulting in a maximal possible score of 8. Images were taken using a Zeiss Axio Imager.Z2 microscope (Zeiss), equipped with an AxioCam HRc (Zeiss, Jena, Germany) camera and ZEN imaging software (Zeiss, Germany).
To analyse cytokine levels in the colons, colon pieces were lysed in PBS (1 ml PBS/[…] tissue) using a GentleMACS device from Miltenyi Biotec (Miltenyi Biotec, Bergisch Gladbach, Germany). Lysates were then analysed for cytokines using the Bio-Plex Pro Mouse Cytokine 23-plex Assay from Bio-Rad (Hercules, CA) according to the manufacturer's instructions.
TIF-Gel acts as a platform able to host and release molecules with different polarity. Thus, the hydrophobic TAC was loaded in to TIF-Gel and its ability to reduce colitis severity was assessed also using a model of T cell mediated colitis, namely T cell transfer colitis. […]

[1] = SAXS phase identification of MLO-water mesophases (TIF-Gel); type: physicochemical; conditions: 10% w/w of drug; lamellar at room temperature, cubic (Ia3d) at 38° C.
Protocol: SAXS measurements were used to determine the phase identity and symmetry of the produced LMPs. Measurements were performed on a Bruker AXS Micro, with a microfocused X-ray source, operating at voltage and filament current of 50 kV and 1000 μA, respectively. The Cu Kα radiation (λCu Kα=1.5418 Å) was collimated by a 2D Kratky collimator, and the data were collected by a 2D Pilatus 100K detector. The scattering vector Q=(4π/λ) sin θ, with 2θ being the scattering angle, was calibrated using silver behenate. Data were collected and azimuthally averaged using the Saxsgui software to yield 1D intensity vs. scattering vector Q, with a Q range from 0.001 to 0.5 Å^−1. For all measurements the samples were placed inside a stainless-steel cell between two thin replaceable mica sheets and sealed by an O-ring, with a sample volume of 10 μL and a thickness of ˜1 mm. Measurements were performed at 25° C., 30° C., 34° C., 36° C. and 38° C. Samples were equilibrated for 10 min before measurements whereas scattered intensity was collected over 30 min and over 60 min in case of lamellar phase. On the other hand, for the kinetic study, the sample was pre equilibrated at 25° C. and inserted in the sample holder kept at 38° C. and the scattered intensity collected over 5 min. To determine the structural parameters such as the size of the water channels, SAXS data information on the lattice were combined with the composition of the samples (R. Mezzenga, et al., Shear rheology of lyotropic liquid crystals: a case study, Langmuir 21, 3322-3333 (2005)).
MLO was used as the lipid component of the mesophases and mixed with weighed amounts of drugs (10% w/w) in sealed Pyrex tubes and alternatively centrifuging (10 min, 5000 g) several times at room temperature until a homogenous mixture was obtained. The mesophase was then equilibrated for 48 h at room temperature in the dark (see, FIGS. 1A and 1B).
Firstly, small angle X-ray scattering (SAXS) measurements were used to determine the optimal amount of water needed to obtain a lamellar phase which provides a transition to a cubic at 38° C. (FIGS. 2B and 2C). The X-ray beam directed at the gel results in a scattering pattern with a set of maxima, that correspond to sharp Bragg reflections characteristic of the long-range positional order. The sequence of Bragg reflections (and their ratio; listed in FIG. 2A) identifies the symmetry of the mesophase studied (See also FIGS. 1A and 1B).

[2] = daily rectal instillation 100 μL

## C=CC[C@@H]1/C=C(\C)C[C@H](C)C[C@H](OC)[C@H]2O[C@@](O)(C(=O)C(=O)N3CCCC[C@H]3C(=O)O[C@H](/C(C)=C/[C@@H]3CC[C@@H](O)[C@H](OC)C3)[C@H](C)[C@@H](O)CC1=O)[C@H](C)C[C@@H]2OC [TAC, tacrolimus]
T cell transfer colitis; colonic tissues
  levels of IFN-γ: reduced levels
  levels of IL-17: reduced levels
T cell transfer colitis; daily rectal instillation
  first signs of colitis, day post T cell transfer: ~10 days
T cell transfer colitis; [2]
  diarrhoea / disease activity score: signs of diarrhoea
  weight development: progressive weight loss
T cell transfer colitis; lamina propria, mesenteric lymph nodes and spleen
  relative abundance of T cells: reduced the relative abundance of T cells
T cell transfer colitis; mouse, in vivo
  abundance of FOXP3+ (regulatory) T cells: not much effect
T cell transfer colitis; vs empty TIF-Gels
  Th1 cells: reduced
  Th17 cells: reduced
  colon length: longer colons
  spleen weight: reduced spleen weight
[1]
  effect of drug on phase identity and transition temperature of the gel: did not affect the phase identity and the transition temperature
